What was measured:
Format in all cases: in vivo, Swiss-Webster mice
[1] = system: hematopoietic progenitor cells (HPCs); test: Hematopoietic progenitor cells (Sca-1+/c-Kit+) in blood by FACS analysis; settings: mice, oral gavage, blood 6 h after final dosing
Procedure: (§1) To examine the effect of compounds and methods of the present invention on hematopoietic progenitor cell (HPC) and neutrophil levels, the following studies were performed. Male Swiss-Webster mice were administered various compounds of the present invention via oral gavage using a ball-tipped gavage needle. Animals treated by oral gavage received a 10 ml/kg volume of either 0.5% carboxymethyl cellulose (CMC) with 0.1% Polysorbate 80 (vehicle control) or various doses (10-100 mg/kg) of a compound of the present invention in 0.5% CMC with 0.1% Polysorbate 80. Animals were dosed once daily for 3 or 4 days.
(§2) Six hours after the final dosing, 200 μl blood samples were collected for detection of hematopoietic progenitor cells (HPCs) and neutrophils by FACS analysis using methods previously described. (See, e.g., Wang et al. (1997) J Leukoc Biol 62 503-9 and Legasse et al. (1996) J Immunol Methods 197:139-50.) Briefly, leukocytes and progenitor cells were isolated from whole blood samples following erythrocyte depletion using red blood cell lysis buffer (eBioscience) according to the manufacturer's instructions. The remaining cells were incubated for one hour with monoclonal antibodies directed against mouse Sca-1 and mouse c-Kit (cell surface markers for HPCs, BD Pharmingen), or mouse Mac-1 and mouse Gr-1 (cell surface markers for murine neutrophils, BD Pharmingen). Following incubation with the monoclonal antibodies, the cells were washed three times with sort buffer (PBS, 1% fetal bovine serum) and resuspended in sort buffer containing 50 μg/ml of propidium iodide. Samples were then analyzed for the presence and quantitation of HPCs and neutrophils by flow cytometry (FACS Calibur, Becton Dickinson). The cytometer was set to acquire 10 000 events. Two or three blood samples obtained from each animal were analyzed and the average recorded. Hematopoietic progenitor cells were determined as double positive Sca-1+/c-Kit+ cells and neutrophils were determined as double positive Mac-1+/Gr-1+ cells.

[2] = system: neutrophils; test: Neutrophils (Mac-1+/Gr-1+) in blood by FACS analysis; settings: mice, oral gavage, blood 6 h after final dosing
Procedure: as §1, §2

[3] = system: hematopoietic progenitor cells (HPCs) in bone marrow; test: Hematopoietic progenitor cells in bone marrow by FACS analysis; settings: mice, oral gavage, tibia bone marrow 6 h after final dosing
Procedure: as §2
(§3) To examine the effect of compounds and methods of the present invention on hematopoietic progenitor cell (HPC) and neutrophil levels in bone marrow, the following studies were performed. Male Swiss-Webster mice were administered various compounds of the present invention via oral gavage using a ball-tipped gavage needle. Animals treated by oral gavage received a 10 ml/kg volume of either 0.5% carboxymethyl cellulose (CMC) with 0.1% Polysorbate 80 (vehicle control) or various doses (10-100 mg/kg) of a compound of the present invention in 0.5% CMC with 0.1% Polysorbate 80. Animals were dosed once daily for 3 or 4 days. Six hours after the final dosing, bone marrow samples were taken from one tibia of each animal and suspended in buffer (PBS with 1% fetal bovine serum). Bone marrow suspensions were then filtered through nylon filters to remove stromal cells. Following filtration, the remaining cells were counted manually using a hemocytometer. Detection and quantitation of HPCs and neutrophils were performed by FACS analysis as described above in Example 1.

[4] = system: neutrophils in bone marrow; test: Neutrophils in bone marrow by FACS analysis; settings: mice, oral gavage, tibia bone marrow 6 h after final dosing
Procedure: as §2, §3

[5] = system: total white blood cell (WBC); test: Total white blood cells by complete blood count, once daily dosing 3 or 4 days; settings: mice, oral gavage, blood 6 h after final dosing
Procedure: as §1, with “increasing white blood cells,” for “hematopoietic progenitor cell (HPC) and neutrophil levels,”, “In one series of experiments, male” for “Male”, “days. Six hours after the final dosing, 200 μl blood samples were collected and total white blood cell, neutrophil, and lymphocyte levels were measured by complete blood count (CBC) using a CellDyn cell analyzer (Abbott Laboratories).” for “days.”

[6] = system: neutrophils; test: Neutrophils by complete blood count, once daily dosing 3 or 4 days; settings: mice, oral gavage, blood 6 h after final dosing, CBC
Procedure: as §1, with “increasing white blood cells,” for “hematopoietic progenitor cell (HPC) and neutrophil levels,”, “In one series of experiments, male” for “Male”, “days. Six hours after the final dosing, 200 μl blood samples were collected and total white blood cell, neutrophil, and lymphocyte levels were measured by complete blood count (CBC) using a CellDyn cell analyzer (Abbott Laboratories).” for “days.”

[7] = system: lymphocytes; test: Lymphocytes by complete blood count, once daily dosing 3 or 4 days; settings: mice, oral gavage, blood 6 h after final dosing, CBC
Procedure: as §1, with “increasing white blood cells,” for “hematopoietic progenitor cell (HPC) and neutrophil levels,”, “In one series of experiments, male” for “Male”, “days. Six hours after the final dosing, 200 μl blood samples were collected and total white blood cell, neutrophil, and lymphocyte levels were measured by complete blood count (CBC) using a CellDyn cell analyzer (Abbott Laboratories).” for “days.”

[8] = 100 mg/kg once daily for 4 days

Cc1cccc(C)c1Oc1ccc2c(C#N)nc(C(=O)NCC(=O)O)c(O)c2c1 [Compound C]
Blood HPCs ([1]; 20 mg/kg once daily for 3 days): 403 cells/μl | Blood HPCs Fold Increase Over Control ([1]; 20 mg/kg once daily for 3 days): 2.7 fold | Percent Blood HPCs ([1]; 20 mg/kg once daily for 3 days): 3.4 % gated cells | Percent Blood HPCs Fold Increase Over Control ([1]; 20 mg/kg once daily for 3 days): 1.6 fold | Blood HPCs ([1]; 20 mg/kg once daily for 4 days): 155 cells/μl | Blood HPCs Fold Increase Over Control ([1]; 20 mg/kg once daily for 4 days): 1.9 fold | Percent Blood HPCs ([1]; 20 mg/kg once daily for 4 days): 0.9 % gated cells | Percent Blood HPCs Fold Increase Over Control ([1]; 20 mg/kg once daily for 4 days): 0.7 fold | Blood HPCs ([1]; 60 mg/kg once daily for 3 days): 486 cells/μl | Blood HPCs Fold Increase Over Control ([1]; 60 mg/kg once daily for 3 days): 3.3 fold | Percent Blood HPCs ([1]; 60 mg/kg once daily for 3 days): 3.4 % gated cells | Percent Blood HPCs Fold Increase Over Control ([1]; 60 mg/kg once daily for 3 days): 1.5 fold | Blood HPCs ([1]; 60 mg/kg once daily for 4 days): 336 cells/μl | Blood HPCs Fold Increase Over Control ([1]; 60 mg/kg once daily for 4 days): 4.1 fold | Percent Blood HPCs ([1]; 60 mg/kg once daily for 4 days): 1.4 % gated cells | Percent Blood HPCs Fold Increase Over Control ([1]; 60 mg/kg once daily for 4 days): 1.2 fold | Blood Neutrophils ([2]; 20 mg/kg once daily for 3 days): 1,375 cells/μl | Blood Neutrophils Fold Increase Over Control ([2]; 20 mg/kg once daily for 3 days): 2.8 fold | Percent Blood Neutrophils ([2]; 20 mg/kg once daily for 3 days): 11.6 % gated cells | Percent Blood Neutrophils Fold Increase Over Control ([2]; 20 mg/kg once daily for 3 days): 1.2 fold | Blood Neutrophils ([2]; 20 mg/kg once daily for 4 days): 1,067 cells/μl | Blood Neutrophils Fold Increase Over Control ([2]; 20 mg/kg once daily for 4 days): 2.0 fold | Percent Blood Neutrophils ([2]; 20 mg/kg once daily for 4 days): 15.8 % gated cells | Percent Blood Neutrophils Fold Increase Over Control ([2]; 20 mg/kg once daily for 4 days): 1.5 fold | Blood Neutrophils ([2]; 60 mg/kg once daily for 3 days): 2,487 cells/μl | Blood Neutrophils Fold Increase Over Control ([2]; 60 mg/kg once daily for 3 days): 5.1 fold | Percent Blood Neutrophils ([2]; 60 mg/kg once daily for 3 days): 17.6 % gated cells | Percent Blood Neutrophils Fold Increase Over Control ([2]; 60 mg/kg once daily for 3 days): 1.8 fold | Blood Neutrophils ([2]; 60 mg/kg once daily for 4 days): 2,933 cells/μl | Blood Neutrophils Fold Increase Over Control ([2]; 60 mg/kg once daily for 4 days): 5.5 fold | Percent Blood Neutrophils ([2]; 60 mg/kg once daily for 4 days): 12.2 % gated cells | Percent Blood Neutrophils Fold Increase Over Control ([2]; 60 mg/kg once daily for 4 days): 1.2 fold | Percent Bone Marrow HPCs ([3]; 20 mg/kg once daily for 3 days): 4.9 % gated cells | Percent Bone Marrow HPCs Fold Increase Over Control ([3]; 20 mg/kg once daily for 3 days): 1.5 fold | Percent Bone Marrow HPCs ([3]; 20 mg/kg once daily for 4 days): 1.4 % gated cells | Percent Bone Marrow HPCs Fold Increase Over Control ([3]; 20 mg/kg once daily for 4 days): 1.2 fold | Percent Bone Marrow HPCs ([3]; 60 mg/kg once daily for 3 days): 6.1 % gated cells | Percent Bone Marrow HPCs Fold Increase Over Control ([3]; 60 mg/kg once daily for 3 days): 1.8 fold | Percent Bone Marrow HPCs ([3]; 60 mg/kg once daily for 4 days): 1.8 % gated cells | Percent Bone Marrow HPCs Fold Increase Over Control ([3]; 60 mg/kg once daily for 4 days): 1.5 fold | Percent Bone Marrow Neutrophils ([4]; 20 mg/kg once daily for 3 days): 47.1 % gated cells | Percent Bone Marrow Neutrophils Fold Increase Over Control ([4]; 20 mg/kg once daily for 3 days): 1.2 fold | Percent Bone Marrow Neutrophils ([4]; 60 mg/kg once daily for 3 days): 41.3 % gated cells | Percent Bone Marrow Neutrophils Fold Increase Over Control ([4]; 60 mg/kg once daily for 3 days): 1.0 fold | Total WBC ([5]; 20 mg/kg once daily for 3 days): 11.80 10^3 cells/μl | Total WBC % Increase Over Control ([5]; 20 mg/kg once daily for 3 days): 117% | Total WBC ([5]; 20 mg/kg once daily for 4 days): 18.83 10^3 cells/μl | Total WBC % Increase Over Control ([5]; 20 mg/kg once daily for 4 days): 167% | Total WBC ([5]; 60 mg/kg once daily for 3 days): 14.50 10^3 cells/μl | Total WBC % Increase Over Control ([5]; 60 mg/kg once daily for 3 days): 166% | Total WBC ([5]; 60 mg/kg once daily for 4 days): 24.33 10^3 cells/μl | Total WBC % Increase Over Control ([5]; 60 mg/kg once daily for 4 days): 245% | Neutrophils ([6]; 20 mg/kg once daily for 3 days): 0.97 10^3 cells/μl | Neutrophils % Increase Over Control ([6]; 20 mg/kg once daily for 3 days): 142% | Neutrophils ([6]; 20 mg/kg once daily for 4 days): 0.77 10^3 cells/μl | Neutrophils % Increase Over Control ([6]; 20 mg/kg once daily for 4 days): −4% | Neutrophils ([6]; 60 mg/kg once daily for 3 days): 1.73 10^3 cells/μl | Neutrophils % Increase Over Control ([6]; 60 mg/kg once daily for 3 days): 333% | Neutrophils ([6]; 60 mg/kg once daily for 4 days): 1.37 10^3 cells/μl | Neutrophils % Increase Over Control ([6]; 60 mg/kg once daily for 4 days): 71% | Lymphocytes ([7]; 20 mg/kg once daily for 3 days): 10.63 10^3 cells/μl | Lymphocytes % Increase Over Control ([7]; 20 mg/kg once daily for 3 days): 117% | Lymphocytes ([7]; 20 mg/kg once daily for 4 days): 17.97 10^3 cells/μl | Lymphocytes % Increase Over Control ([7]; 20 mg/kg once daily for 4 days): 192% | Lymphocytes ([7]; 60 mg/kg once daily for 3 days): 12.70 10^3 cells/μl | Lymphocytes % Increase Over Control ([7]; 60 mg/kg once daily for 3 days): 159% | Lymphocytes ([7]; 60 mg/kg once daily for 4 days): 22.77 10^3 cells/μl | Lymphocytes % Increase Over Control ([7]; 60 mg/kg once daily for 4 days): 270%

COc1ccc(Oc2ccc3c(O)c(C(=O)NCC(=O)O)ncc3c2)cc1 [Compound A, {[4-Hydroxy-7-(4-methoxy-phenoxy)-isoquinoline-3-carbonyl]-amino}-acetic acid]
Blood HPCs ([1]; 60 mg/kg once daily for 3 days): 76 cells/μl | Blood HPCs Fold Increase Over Control ([1]; 60 mg/kg once daily for 3 days): 1.7 fold | Percent Blood HPCs ([1]; 60 mg/kg once daily for 3 days): 0.9 % gated cells | Percent Blood HPCs Fold Increase Over Control ([1]; 60 mg/kg once daily for 3 days): 1.4 fold | Blood HPCs [1, 8]: 125 cells/μl | Blood HPCs Fold Increase Over Control [1, 8]: 7.4 fold | Percent Blood HPCs [1, 8]: 1.3 % gated cells | Percent Blood HPCs Fold Increase Over Control [1, 8]: 4.1 fold | Blood Neutrophils ([2]; 60 mg/kg once daily for 3 days): 200 cells/μl | Blood Neutrophils Fold Increase Over Control ([2]; 60 mg/kg once daily for 3 days): 2.0 fold | Percent Blood Neutrophils ([2]; 60 mg/kg once daily for 3 days): 2.3 % gated cells | Percent Blood Neutrophils Fold Increase Over Control ([2]; 60 mg/kg once daily for 3 days): 1.6 fold | Blood Neutrophils [2, 8]: 1,083 cells/μl | Blood Neutrophils Fold Increase Over Control [2, 8]: 6.1 fold | Percent Blood Neutrophils [2, 8]: 11.3 % gated cells | Percent Blood Neutrophils Fold Increase Over Control [2, 8]: 3.4 fold | Percent Bone Marrow HPCs ([3]; 60 mg/kg once daily for 3 days): 5.1 % gated cells | Percent Bone Marrow HPCs Fold Increase Over Control ([3]; 60 mg/kg once daily for 3 days): 1.3 fold | Percent Bone Marrow HPCs [3, 8]: 6.7 % gated cells | Percent Bone Marrow HPCs Fold Increase Over Control [3, 8]: 1.5 fold | Percent Bone Marrow Neutrophils ([4]; 60 mg/kg once daily for 3 days): 33.4 % gated cells | Percent Bone Marrow Neutrophils Fold Increase Over Control ([4]; 60 mg/kg once daily for 3 days): 1.1 fold | Percent Bone Marrow Neutrophils [4, 8]: 33.7 % gated cells | Percent Bone Marrow Neutrophils Fold Increase Over Control [4, 8]: 1.3 fold | Total WBC ([5]; 60 mg/kg once daily for 3 days): 8.66 10^3 cells/μl | Total WBC % Increase Over Control ([5]; 60 mg/kg once daily for 3 days): 12% | Total WBC [5, 8]: 9.62 10^3 cells/μl | Total WBC % Increase Over Control [5, 8]: 14% | Neutrophils ([6]; 60 mg/kg once daily for 3 days): 0.78 10^3 cells/μl | Neutrophils % Increase Over Control ([6]; 60 mg/kg once daily for 3 days): 18% | Neutrophils [6, 8]: 1.22 10^3 cells/μl | Neutrophils % Increase Over Control [6, 8]: 94% | Lymphocytes ([7]; 60 mg/kg once daily for 3 days): 7.82 10^3 cells/μl | Lymphocytes % Increase Over Control ([7]; 60 mg/kg once daily for 3 days): 14% | Lymphocytes [7, 8]: 8.30 10^3 cells/μl | Lymphocytes % Increase Over Control [7, 8]: 8%

From patent publication US20110039879A1, “METHODS FOR INCREASING WHITE BLOOD CELLS” (FibroGen ,Inc., priority 2007, published 2011)
